Article PMC12741935 (Alzheimer's & Dementia, 2025)

Columns and labels:
[1] = tested on: 14 DIV hippocampal neurons; test: oTau-induced dendrite degeneration (MAP2 dendrite length, number) in cultured hippocampal neurons; format: cell-based, mouse; settings: oTau 50 nM + inhibitor 24 h vs oTau alone, NVS-PAK1-1 10 nM, AZ 1 nM, G 5 nM; for total dendrite length per neuron: PAK1-C 10 nM
Protocol: (§1) For in vitro study, all animal procedures were conducted in accordance with the National Institutes of Health Guide for the Care and Use of Laboratory Animals using protocols approved by the institutional animal care and use committee at Stanford University. Timed pregnant C57BL/6 mice (Strain code: 027) were purchased from Charles River Laboratories and delivered on embryonic day 15 (E15), after which E16 embryos were used for primary hippocampal cultures. Primary embryonic mouse hippocampal neuron cultures were plated on poly‐D‐lysine‐coated (10 µg/mL) glass cover slips at 40,000 to 50,000 cells per well in 12‐well plates (Corning Life Sciences). Cells were seeded in plating medium DMEM/F12 supplemented with 10% fetal bovine serum and 1 × penicillin/streptomycin (PS) for 2 hours. Medium was then changed to B‐27 Plus Neuronal Culture System (Invitrogen) supplemented with PS, and 2 mM glutamine.
(§2) Immunofluorescence was performed as described previously.[24] Briefly, cultured hippocampal neurons were fixed in 4% formaldehyde for 20 minutes, permeabilized for 6 minutes in 80% ice‐cold methanol, and incubated with primary antibodies at 4°C overnight. Primary antibodies used were rabbit polyclonal MAP2 antibody for labeling dendrites (1:1000, #8707, Cell Signaling) and mouse monoclonal drebrin antibody for labeling dendritic spines (1:300; Cat#ADI‐NBA‐110, Enzo). Secondary antibodies consisted of donkey antirabbit or antimouse conjugated with either FITC or Cy3 (1:400; Jackson ImmunoResearch Laboratories, Inc.).
(§3) The cultured hippocampal neurons were imaged using an oil‐based 63x objective on a Leica Stellaris 5 confocal microscope. The cell nucleus was stained with DAPI and imaged at a wavelength of 405 nm (blue channel), the dendrites stained by MAP2 were imaged at 488 nm wavelength (green channel), and the drebrin‐stained spines were imaged at a wavelength of 561 nm (red channel). Z‐stack images of neurons were acquired at a 1024 × 1024 resolution, a zoom factor of 1.0, and a z‐step size of 0.5 µm. The number of steps for every z‐stack picture of a neuron were determined by the size of the neuron in the z‐plane, to ensure that the entirety of a neuron is captured in the picture. The areas to be imaged were selected systematically, starting from the top‐left region to proceeding to the bottom‐right region of a coverslip. For imaging, preference was given to field of views containing isolated neurons versus clustered neurons.
(§4) For quantification of drebrin‐positive spines in vitro, the images were analyzed using Imaris 9.3 software. Each image consisted of one major neuron and the “filaments” option in Imaris was applied to manually trace along the dendrites of every neuron, by placing starting and seed points at the beginning and along the length of the dendrites, respectively. The largest dendrite diameter (i.e., Starting Point) was set at 9.00 µm threshold while the thinnest dendrite diameter (i.e., Seed Point) was set at 1.00 µm threshold. After manually tracing the dendrites, the spines along the dendrites were assessed using the automatic “spine detection” function in Imaris. The thinnest spine diameter was set at 0.80 µm threshold while the maximum spine length was set at 5.00 µm. The spine density (number of spines/dendrite length) was then calculated for each neuron. All image acquisition and quantification were performed in a blind manner. For in vitro quantification of dendrite degeneration, Neurolucida (MBF Biosciences) in the manual mode was used to measure the total dendritic length, numbers of dendrites, and dendritic complexity for each neuron.

[2] = tested on: 14 DIV mouse hippocampal neurons; test: oTau-induced spine loss: drebrin-positive spine density in cultured hippocampal neurons; format: cell-based; settings: oTau 50 nM + inhibitor 24 h vs oTau alone; NVS-PAK1-1 10 nM, NVS-PAK1-C 10 nM, AZ13705339 1 nM, G5555 5 nM
Protocol: as §1, §2
The cultured hippocampal neurons were imaged using an oil‐based 63x objective on a Leica Stellaris 5 confocal microscope. The cell nucleus was stained with DAPI and imaged at a wavelength of 405 nm (blue channel), the dendrites stained by MAP2 were imaged at 488 nm wavelength (green channel), and the drebrin‐stained spines were imaged at a wavelength of 561 nm (red channel). […] The number of steps for every z‐stack picture of a neuron were determined by the size of the neuron in the z‐plane, to ensure that the entirety of a neuron is captured in the picture. […]
For quantification of drebrin‐positive spines in vitro, the images were analyzed using Imaris 9.3 software. […] After manually tracing the dendrites, the spines along the dendrites were assessed using the automatic “spine detection” function in Imaris. […] The spine density (number of spines/dendrite length) was then calculated for each neuron. All image acquisition and quantification were performed in a blind manner. For in vitro quantification of dendrite degeneration, Neurolucida (MBF Biosciences) in the manual mode was used to measure the total dendritic length, numbers of dendrites, and dendritic complexity for each neuron.

[3] = tested on: 14 DIV hippocampal neurons; test: oAβ-induced dendrite degeneration (MAP2 dendrite length, number, complexity) in cultured hippocampal neurons; format: cell-based, mouse; settings: oAβ 1 µM + inhibitor 24 h vs oAβ alone, NVS-PAK1-1 10 nM, AZ 1 nM, G 5 nM; for total dendrite length per neuron: PAK1-C 10 nM
Protocol: as §1, §2, §3, §4

[4] = tested on: 14 DIV mouse hippocampal neurons; test: oAβ-induced spine loss: drebrin-positive spine density in cultured hippocampal neurons; format: cell-based; settings: oAβ 1 µM + inhibitor 24 h vs oAβ alone; NVS-PAK1-1 10 nM, NVS-PAK1-C 10 nM, AZ13705339 1 nM, G5555 5 nM
Protocol: as §1, §2, §3
For quantification of drebrin‐positive spines in vitro, the images were analyzed using Imaris 9.3 software. Each image consisted of one major neuron and the “filaments” option in Imaris was applied to manually trace along the dendrites of every neuron, by placing starting and seed points at the beginning and along the length of the dendrites, respectively. The largest dendrite diameter (i.e., Starting Point) was set at 9.00 µm threshold while the thinnest dendrite diameter (i.e., Seed Point) was set at 1.00 µm threshold. After manually tracing the dendrites, the spines along the dendrites were assessed using the automatic “spine detection” function in Imaris. […] The spine density (number of spines/dendrite length) was then calculated for each neuron. All image acquisition and quantification were performed in a blind manner. For in vitro quantification of dendrite degeneration, Neurolucida (MBF Biosciences) in the manual mode was used to measure the total dendritic length, numbers of dendrites, and dendritic complexity for each neuron.

[5] = tested on: kinome; broad panel of proteases, receptors, and bromodomains; settings: cited from earlier work

Row | SMILES | total dendrite length per neuron [1] | drebrin-stained spine density (spine counts per µm of dendritic length) [2] | total dendrite length per neuron [3] | drebrin-stained spine density (spine counts per µm of dendritic length) [4] | dendrite number per neuron [1] | dendrite number per neuron [3] | off-target kinase inhibition [5]
1 | CN(C)C(=O)N1CC[C@H](N=C2Nc3cc(F)ccc3N(CC(F)F)c3ccc(Cl)cc32)C1 [NVS‐PAK1‐C] | Neither G nor PAK1‐C showed a significant dendrite length difference | not reflected | Neither G nor PAK1‐C showed a significant dendrite length difference | not reflected | – | – | –
2 | CNc1ncc2cc(-c3ccc(-c4cccc(C)n4)cc3Cl)c(=O)n(C[C@H]3OC[C@H](N)CO3)c2n1 [G5555] | Neither G nor PAK1‐C showed a significant dendrite length difference | significantly higher spine counts | Neither G nor PAK1‐C showed a significant dendrite length difference | significantly higher spine counts | significantly increased dendrite number per neuron | significantly increased dendrite number per neuron | inhibit off‐target kinases
3 | CCS(=O)(=O)c1cc(Nc2ncc(F)c(N(Cc3ccccc3C#N)c3cc(CO)ccc3C)n2)ccc1N1CCN(C)CC1 [AZ13705339] | preserved dendrite length | significantly higher spine counts | preserved dendrite length | significantly higher spine counts | significantly increased dendrite number per neuron | significantly increased dendrite number per neuron | inhibit off‐target kinases
